Experimental data as given in patent US9249184B2, “Cardiac-specific protein targeting domain” (University of Pittsburgh—of the Commonwealth System of …, priority 2010, dated 2016).
Ends that are not written are not given here.

Experiments:
human heart tissue = assay: Ex vivo transduction of human explanted heart slices (confocal microscopy); conditions: separate explanted heart; 500 ul of 1 mM solution; 30 mins at 37° C.
Procedure: Human explanted hearts were obtained from the operating rooms of UPMC at the time of ongoing heart transplants. Heart tissue was dissected from the proximal part or the base of the heart to avoid the more scarred, infarcted, distal tissue. Small 1-2 mm thick slices of heart tissue were taken and incubated with CTP-6CF (500 ul of a 1 mM solution) or PBS, for 30 and 60 mins, at 37° C./5% CO2. At the end of the incubation period, the heart slices were washed in PBS 6 times, fixed in 2% paraformaldehyde for 4 hrs at room temperature, followed by 30% sucrose overnight at 4° C. Next day the tissue was frozen in liquid nitrogen-chilled isopentane and stored 58
at −80° C., for later cryosectioning, cross-staining with DRAQ5 and confocal microscopy. Confocal micrographs were obtained avoiding the edges because of the necessary damage associated with dissecting the heart tissue pieces. Confocal micrographs were taken 3-4 cell layers away from any edges.
To investigate if this transduction was indeed peptide specific, and not secondary to increased membrane leakiness resulting from tissue being ischemic, we incubated thin, 1-2 mm thick, heart slices, from a separate explanted heart, in only 6CF in PBS, CTP-6CF, RAN-6CF as well as 6CF labeled 6-Arginine, a known PTD. We also incubated heart slices with Evans blue dye (EBD) to assess for membrane leakiness. […]

[1] = in vitro phage display; cited from earlier work
[2] = in vitro phage display; cited from earlier work; remark: listed apart in the source
[3] = system: heart, liver, lung, spleen, kidney, skeletal muscle and brain; assay: In vivo tissue transduction by biotinylated peptides coupled to Streptavidin-Alexa488 (confocal microscopy); set-up: species or system Balb/c mice; conditions: 10 mg/Kg i.v.; 30 minutes post-injection
Procedure: In vivo imaging studies. The initial in vivo targeting studies were performed using CTP-6CF. Female Balb/C mice were injected retro-orbitally with CTP-6CF (25 mg/Kg) and euthanized 15 minutes later, Heart cross-sections were stained for actin using phalloidin Alexa-647 (Molecular Probes, A22287) and stained for laminin using a rabbit anti-laminin antibody followed by a goat anti-rabbit Cy3 (Jackson ImmunoResearch, 111-167-003) secondary antibody. Five non-overlapping sections were taken from each heart for quantification of green fluorescence (CTP-6CF) expressed as a percentage of total area (blue; stained for actin). A control peptide (CON; […]; SEQ ID NO:15), picked from the original, unselected M13 phage library, CTP and 8-Lysine (8K, a homopolymer of lysine), a known cationic protein transduction domain, were synthesized in a biotinylated form. 200 mM of biotinylated CTP, CON and 8K, or equivalent volume of PBS, were incubated with 10 ul of Streptavidin-Alexa488 (2 ng/ml; Molecular Probes, 532354) for 2 hours at room temperature. Female Balb/c mice were intravenously (retro-orbitally) injected with peptides at a dose of 10 mg/Kg and then euthanized 30 minutes post-injection. […] For confocal microscopy, laser intensities/gains were set using negative control (PBS injected) heart tissue to minimize background fluorescence. […]

myocardial infarct = assay: Murine infarct model (left artery ligation); assay type: in vivo, Balb/c mice; conditions: 8K-NBD study; 5 mg/Kg/injection i.p. post-op day 0, 1, 2; day 7; vs PBS
Source text: The following protocol was used and kept consistent from one set of experiments to another and between groups. Female, Balb/c, 10-20 week old mice were used for these set of studies. Female mice were chosen because of the ability to house 5/cage, as opposed to male mice (4/cage) and more importantly because female mice are able to tolerate cardiac insults better with lower post-operative mortality (19). Mice were anesthetized with intraperitoneal (i.p.) injection of 2.5% Avertin (a mixture of 15.5 ml tert-amyl alcohol to 25 grams of 2-2-2 Tribromoethanol-stock solution diluted to 2.5% concentration with PBS) at a dose of 15 μl/gm of body weight. Adequate anesthetic level was assessed by lack of response to toe-pinch and lack of a gag reflex. Mice were intubated, using direct visualization of the vocal chords, with a 22 G cannula and placed on a Harvard rodent ventilator apparatus. Tube placement was confirmed by symmetric expansion of the thoracic cavity. Mice were ventilated with ˜0.1 cc/breath tidal volume at a rate of 110 breaths/minute. […]
Mice were euthanized on post-operative day 7. […] The three sections were H&E stained, light microscopy photographs taken, and area of infarct in each section mapped out using computer software Metamorph and expressed as a percent of the whole heart. […]

apoptosis in heart = assay: TUNEL staining of heart cross-sections in the murine infarct model; assay type: in vivo, Balb/c mice; conditions: 8K-NBD study; 5 mg/Kg/injection i.p. post-op day 0, 1, 2; day 7
Procedure: A cross-section from each heart was taken and apoptosis assessed by TUNEL staining. The nuclei were stained with Dapi, and the number of TUNEL positive nuclei expressed as a percentage of total nuclei in each field. The whole heart cross-section was taken into consideration by taking 5-6 contiguous, non-overlapping sections from each heart. […] FIG. 18 illustrates the TUNEL staining data in a quantitative manner.

O=C(O)c1ccc2c(c1)C1(OC2=O)c2ccc(O)cc2Oc2cc(O)ccc21 [6CF, 6-carboxyfluorescene]
uptake in human heart slices ex vivo (confocal microscopy) (human heart tissue): occasional cells showing fluorescence

Cc1cc(-c2ccc(/N=N/c3ccc4c(S(=O)(=O)[O-])cc(S(=O)(=O)[O-])c(N)c4c3O)c(C)c2)ccc1/N=N/c1ccc2c(S(=O)(=O)[O-])cc(S(=O)(=O)[O-])c(N)c2c1O.[Na+].[Na+].[Na+].[Na+] [EBD, Evans blue dye]
uptake in human heart slices ex vivo (confocal microscopy) (human heart tissue): did not show any fluorescence

APWHLSSQYSRT [CTP]
affinity for binding to apatite-based, bone-like minerals [1]: high affinity | affinity for binding to two specific sulfated carbohydrates [2]: high affinity

CON-SA488: biotinylated control peptide CON (ARPLEHGSDKAT) coupled to Streptavidin-Alexa488 (also: biotinylated, coupled to streptavidin-Alexa488)
uptake in any organ [3]: did not show appreciable uptake

KKKKKKKK-TTLDASALQME (KKKKKKKKTTLDASALQME) [8K-mutNBD]
heart-weight to body-weight ratio (myocardial infarct): did not differ | infarct size (myocardial infarct): worse | TUNEL positive (apoptotic) nuclei (apoptosis in heart): lesser number of apoptotic nuclei
